# Assays:
# [1] = biological target: T1, K-Ras G12D (Homo sapiens, UniProt P01116, G12D); experiment: HTRF resonance energy transfer assay, K-Ras G12D / SOS1 interaction; assay type: biochemical; details: HTRF assay of Example 5; read-out: IC50 against K-Ras G12D
# T1 construct: made in house; host or cells: E. coli BL21 (DE3)
# Procedure, shortened: (§1)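 Read-out: HTRF 665/620 nm ratio (excitation 337 nm) after roughly 10 min or longer incubation, used to derive IC50. Donor anti-GST-Eu on GST-K-Ras; acceptor anti-6His-XL665 on His-hSOS1. Duplicate dose series from 10 μM down to 0.01 μM.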
# [2] = biological target: T2, K-Ras G12S (Homo sapiens, UniProt P01116, G12S); experiment: HTRF resonance energy transfer assay, K-Ras G12S / SOS1 interaction; assay type: biochemical; details: HTRF assay of Example 5; read-out: IC50 against K-Ras G12S
# T2 construct: made in house; host or cells: E. coli BL21 (DE3)
# Procedure, shortened: as §1
# [3] = biological target: T3, K-Ras G12V (Homo sapiens, UniProt P01116, G12V); experiment: HTRF resonance energy transfer assay, K-Ras G12V / SOS1 interaction; assay type: biochemical; details: HTRF assay of Example 5; read-out: IC50 against K-Ras G12V
# T3 construct: made in house; host or cells: E. coli BL21 (DE3)
# Procedure, shortened: as §1
# [4] = biological target: T4, K-Ras WT (Homo sapiens, UniProt P01116); experiment: HTRF resonance energy transfer assay, K-Ras WT / SOS1 interaction; assay type: biochemical; details: HTRF assay of Example 5; read-out: IC50 against K-Ras WT
# T4 construct: made in house; host or cells: E. coli BL21 (DE3)
# Procedure, shortened: as §1
# [5] = system: GP2D cells; experiment: Ras cellular assay, growth of cells with K-Ras G12D mutation (CellTiter-Glo); assay type: cell-based; details: cell growth, Example 9, G12D mutation, read-out: IC50 against GP2D cells
# [6] = system: A549 cells; experiment: Ras cellular assay, growth of cells with K-Ras G12S mutation (CellTiter-Glo); assay type: cell-based; details: Homo sapiens, cell growth, Example 9, G12S mutation, read-out: IC50 against A549 cells
# Procedure, shortened: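 A549 cells (K-Ras G12S) in RPMI-1640 with 10% heat-inactivated FBS, seeded e.g. 800 per well in standard or ultra-low-attachment 384-well plates, treated next day with a dilution series (e.g. 10-point, 3-fold). Viability by CellTiter-Glo luminescence about 6 days later; IC50 from four-parameter fit.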
# [7] = system: SW620 cells; experiment: Ras cellular assay, growth of cells with K-Ras G12V mutation (CellTiter-Glo); assay type: cell-based; details: Homo sapiens, SW-620; cell growth, Example 9, G12V mutation; read-out: IC50 against SW620 cells
# Procedure, shortened: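 SW620 (K-Ras G12V) cells, e.g. 800/well in RPMI-1640 with 10% heat-inactivated FBS on standard or ultra-low attachment plates, were dosed the day after plating with e.g. a 10-point 3-fold series. Viability by CellTiter-Glo luminescence about 6 days later; IC50 from four-parameter fit.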
# T3 sequence (P01116 1-188 isoform P01116-2 G12V): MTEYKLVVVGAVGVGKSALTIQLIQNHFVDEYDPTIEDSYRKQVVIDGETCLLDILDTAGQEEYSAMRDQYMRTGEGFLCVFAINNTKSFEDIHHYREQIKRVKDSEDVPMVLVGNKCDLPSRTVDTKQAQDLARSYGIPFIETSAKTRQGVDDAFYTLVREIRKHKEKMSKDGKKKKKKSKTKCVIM
# T1 sequence (P01116 1-188 isoform P01116-2 G12D): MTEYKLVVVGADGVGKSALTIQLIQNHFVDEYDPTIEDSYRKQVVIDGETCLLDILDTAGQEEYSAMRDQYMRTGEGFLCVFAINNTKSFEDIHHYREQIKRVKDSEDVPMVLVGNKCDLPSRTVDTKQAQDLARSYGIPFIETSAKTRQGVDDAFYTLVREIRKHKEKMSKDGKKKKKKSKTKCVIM
# T4 sequence (P01116 1-188 isoform P01116-2): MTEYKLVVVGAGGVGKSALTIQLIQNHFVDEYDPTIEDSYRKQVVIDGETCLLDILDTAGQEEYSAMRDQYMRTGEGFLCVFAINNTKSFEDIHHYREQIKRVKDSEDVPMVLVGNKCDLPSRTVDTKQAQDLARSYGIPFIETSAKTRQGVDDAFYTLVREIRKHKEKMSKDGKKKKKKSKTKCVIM
# T2 sequence (P01116 1-188 isoform P01116-2 G12S): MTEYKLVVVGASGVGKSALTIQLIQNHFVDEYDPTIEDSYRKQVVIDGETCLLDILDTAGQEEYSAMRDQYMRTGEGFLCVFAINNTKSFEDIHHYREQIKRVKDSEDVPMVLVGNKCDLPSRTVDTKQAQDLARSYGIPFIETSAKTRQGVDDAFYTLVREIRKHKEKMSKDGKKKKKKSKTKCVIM
SMILES,IC50 [1] [nM],IC50 [2] [nM],IC50 [3] [nM],IC50 [4] [nM],IC50 [6] [nM],IC50 [7] [nM],IC50 [5] [nM]
"N#Cc1c(N)sc2c(F)ccc(-c3c(Cl)c4c5c(nc(OC[C@@]67CCCN6C[C@H](F)C7)nc5c3F)N(CC3CC(F)(F)C3)CCO4)c12 [Compound 951, 2-amino-4-(8-chloro-4-((3,3-difluorocyclobutyl)methyl)-10-fluoro-2-(((2R,7aS)-2-fluorotetrahydro-1H-pyrrolizin-7a(5H)-yl)methoxy)-5,6-dihydro-4H-[1,4]oxazepino[5,6,7-de]quinazolin-9-yl)-7-fluorobenzo[b]thiophene-3-carbonitrile]",< 100,< 100,< 100,< 100,< 5000,< 5000,< 500
"N#Cc1c(N)sc2c(F)ccc(-c3c(Cl)c4c5c(nc(OC[C@@]67CCCN6C[C@H](F)C7)nc5c3F)N(C3CCC(OC(F)F)C3)CCO4)c12 (stereo partly drawn) [Compound 740, 2-amino-4-(8-chloro-4-(3-(difluoromethoxy)cyclopentyl)-10-fluoro-2-(((2R,7aS)-2-fluorotetrahydro-1H-pyrrolizin-7a(5H)-yl)methoxy)-5,6-dihydro-4H-[1,4]oxazepino[5,6,7-de]quinazolin-9-yl)-7-fluorobenzo[b]thiophene-3-carbonitrile]",< 100,< 100,< 100,< 100,< 5000,< 5000,< 500
"N#Cc1c(N)sc2c(F)ccc(-c3c(Cl)c4c5c(nc(OC[C@@]67CCCN6C[C@H](F)C7)nc5c3F)N([C@H]3CCOC3)CCO4)c12 [Compound 793, 2-amino-4-(8-chloro-10-fluoro-2-(((2R,7aS)-2-fluorotetrahydro-1H-pyrrolizin-7a(5H)-yl)methoxy)-4-((S)-tetrahydrofuran-3-yl)-5,6-dihydro-4H-[1,4]oxazepino[5,6,7-de]quinazolin-9-yl)-7-fluorobenzo[b]thiophene-3-carbonitrile]",< 100,< 100,< 100,< 100,< 5000,< 5000,< 500
"C[C@H]1CN(C2CCN(C(=O)C(F)F)C2)c2nc(OC[C@@]34CCCN3C[C@H](F)C4)nc3c(F)c(-c4ccc(F)c5sc(N)c(C#N)c45)c(Cl)c(c23)O1 (stereo partly drawn) [Compound 665, 2-amino-4-((6S)-8-chloro-4-(1-(2,2-difluoroacetyl)pyrrolidin-3-yl)-10-fluoro-2-(((2R,7aS)-2-fluorotetrahydro-1H-pyrrolizin-7a(5H)-yl)methoxy)-6-methyl-5,6-dihydro-4H-[1,4]oxazepino[5,6,7-de]quinazolin-9-yl)-7-fluorobenzo[b]thiophene-3-carbonitrile]",< 100,< 100,< 100,< 100,< 5000,< 5000,< 500
"N#Cc1c(N)sc2c(F)ccc(-c3c(Cl)c4c5c(nc(OC[C@@]67CCCN6C[C@H](F)C7)nc5c3F)N(C3CC35CN(C=O)C5)CCO4)c12 (stereo partly drawn) [Compound 957, 2-amino-4-(8-chloro-10-fluoro-2-(((2R,7aS)-2-fluorotetrahydro-1H-pyrrolizin-7a(5H)-yl)methoxy)-4-(5-formyl-5-azaspiro[2.3]hexan-1-yl)-5,6-dihydro-4H-[1,4]oxazepino[5,6,7-de]quinazolin-9-yl)-7-fluorobenzo[b]thiophene-3-carbonitrile]",< 100,< 100,< 100,< 100,< 5000,< 5000,< 500
"N#Cc1c(N)sc2c(F)ccc(-c3c(Cl)c4c5c(nc(OC[C@@]67CCCN6C[C@H](F)C7)nc5c3F)N(C3CCOC3)CC(O)CO4)c12 (stereo partly drawn) [Compound 1225, 2-amino-4-(9-chloro-11-fluoro-2-(((2R,7aS)-2-fluorotetrahydro-1H-pyrrolizin-7a(5H)-yl)methoxy)-6-hydroxy-4-(tetrahydrofuran-3-yl)-4,5,6,7-tetrahydro-[1,5]oxazocino[4,3,2-de]quinazolin-10-yl)-7-fluorobenzo[b]thiophene-3-carbonitrile]",< 100,< 100,< 100,< 100,< 5000,< 5000,< 500
"CO[C@H](C)C(=O)N1CCC(N2CCOc3c(Cl)c(-c4ccc(F)c5sc(N)c(C#N)c45)c(F)c4nc(OC[C@@]56CCCN5C[C@H](F)C6)nc2c34)C1 (stereo partly drawn) [Compound 1110, 2-amino-4-(8-chloro-10-fluoro-2-(((2R,7aS)-2-fluorotetrahydro-1H-pyrrolizin-7a(5H)-yl)methoxy)-4-(1-((R)-2-methoxypropanoyl)pyrrolidin-3-yl)-5,6-dihydro-4H-[1,4]oxazepino[5,6,7-de]quinazolin-9-yl)-7-fluorobenzo[b]thiophene-3-carbonitrile]",< 100,< 100,< 100,< 100,< 5000,< 5000,< 500

# Now from value to compound, other results behind:
IC50 [1] [nM],IC50 [2] [nM],IC50 [3] [nM],IC50 [4] [nM],IC50 [6] [nM],IC50 [7] [nM],SMILES,IC50 [5] [nM]
< 100,< 100,< 100,< 100,< 5000,< 5000,"N#Cc1c(N)sc2c(F)ccc(-c3c(Cl)c4c5c(nc(OC[C@@]67CCCN6C[C@H](F)C7)nc5c3F)N(CC(F)F)[C@@H](CNC=O)CO4)c12 [Compound 1028, N-(((5S)-9-(2-amino-3-cyano-7-fluorobenzo[b]thiophen-4-yl)-8-chloro-4-(2,2-difluoroethyl)-10-fluoro-2-(((2R,7aS)-2-fluorotetrahydro-1H-pyrrolizin-7a(5H)-yl)methoxy)-5,6-dihydro-4H-[1,4]oxazepino[5,6,7-de]quinazolin-5-yl)methyl)formamide]",< 500
< 100,< 100,< 100,< 100,< 5000,< 5000,"N#Cc1c(N)sc2c(F)ccc(-c3c(Cl)c4c5c(nc(OC[C@@]67CCCN6C[C@H](F)C7)nc5c3F)N(CCC(F)F)CCCO4)c12 [Compound 1212, 2-amino-4-(9-chloro-4-(3,3-difluoropropyl)-11-fluoro-2-(((2R,7aS)-2-fluorotetrahydro-1H-pyrrolizin-7a(5H)-yl)methoxy)-4,5,6,7-tetrahydro-[1,5]oxazocino[4,3,2-de]quinazolin-10-yl)-7-fluorobenzo[b]thiophene-3-carbonitrile]",< 500
< 100,< 100,< 100,< 100,< 5000,< 5000,"N#Cc1c(N)sc2c(F)ccc(-c3c(Cl)c4c5c(nc(OC[C@@]67CCCN6C[C@H](F)C7)nc5c3F)N(C3CC3)CCO4)c12 [Compound 891, 2-amino-4-(8-chloro-4-cyclopropyl-10-fluoro-2-(((2R,7aS)-2-fluorotetrahydro-1H-pyrrolizin-7a(5H)-yl)methoxy)-5,6-dihydro-4H-[1,4]oxazepino[5,6,7-de]quinazolin-9-yl)-7-fluorobenzo[b]thiophene-3-carbonitrile]",< 500
< 100,< 100,< 100,< 100,< 5000,< 5000,"N#Cc1c(N)sc2c(F)ccc(-c3c(Cl)c4c5c(nc(OC[C@@]67CCCN6C[C@H](F)C7)nc5c3F)N(CC3CC3(F)F)CCO4)c12 (stereo partly drawn) [Compound 850, 2-amino-4-(8-chloro-4-((2,2-difluorocyclopropyl)methyl)-10-fluoro-2-(((2R,7aS)-2-fluorotetrahydro-1H-pyrrolizin-7a(5H)-yl)methoxy)-5,6-dihydro-4H-[1,4]oxazepino[5,6,7-de]quinazolin-9-yl)-7-fluorobenzo[b]thiophene-3-carbonitrile]",< 500
< 100,< 100,< 100,< 100,< 5000,< 5000,"CC1Oc2c(Cl)c(-c3ccc(F)c4sc(N)c(C#N)c34)c(F)c3nc(OC[C@@]45CCCN4C[C@H](F)C5)nc(c23)N(CC(F)F)C1C (stereo partly drawn) [Compound 944, 2-amino-4-(8-chloro-4-(2,2-difluoroethyl)-10-fluoro-2-(((2R,7aS)-2-fluorotetrahydro-1H-pyrrolizin-7a(5H)-yl)methoxy)-5,6-dimethyl-5,6-dihydro-4H-[1,4]oxazepino[5,6,7-de]quinazolin-9-yl)-7-fluorobenzo[b]thiophene-3-carbonitrile]",< 500

# — patent US12209102B2, “Heterocyclic compounds and uses thereof” (Kumquat Biosciences Inc., priority 2022, dated 2025)
